Results from PubChem BioAssay (NCI).
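Assay format: 96-well plates, 48-hour exposure. TGI marks complete inhibition of growth.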

Columns and labels:
Assay in all cases: growth of human tumour cells (NCI), 48 h
UACC-257 melanoma = test system: UACC-257 melanoma
OVCAR-4 ovarian = test system: OVCAR-4 ovarian
NCI-H522 lung = test system: NCI-H522 lung
MDA-N = test system: MDA-N
U251 CNS = test system: U251 CNS
M14 melanoma = test system: M14 melanoma
DU-145 prostate = test system: DU-145 prostate
SF-268 CNS = test system: SF-268 CNS
MCF7 breast = test system: MCF7 breast
COLO 205 colon = test system: COLO 205 colon
BT-549 breast = test system: BT-549 breast
EKVX NSCLC = test system: EKVX NSCLC
IGROV1 ovarian = test system: IGROV1 ovarian
UACC-62 melanoma = test system: UACC-62 melanoma
SNB-19 CNS = test system: SNB-19 CNS
MDA-MB-231 breast = test system: MDA-MB-231 breast
SW-620 colon = test system: SW-620 colon
SN12C renal = test system: SN12C renal
K-562 leukemia = test system: K-562 leukemia
CCRF-CEM leukemia = test system: CCRF-CEM leukemia
MALME-3M melanoma = test system: MALME-3M melanoma
A549 NSCLC = test system: A549 NSCLC
MOLT-4 leukemia = test system: MOLT-4 leukemia
UO-31 renal = test system: UO-31 renal
PC-3 prostate = test system: PC-3 prostate
A498 renal = test system: A498 renal
NCI-H460 lung = test system: NCI-H460 lung
NCI/ADR-RES ovarian = test system: NCI/ADR-RES ovarian
SF-539 CNS = test system: SF-539 CNS
SR leukemia = test system: SR leukemia
HS 578T breast = test system: HS 578T breast
SK-MEL-28 melanoma = test system: SK-MEL-28 melanoma
HT29 colon = test system: HT29 colon
NCI-H23 lung = test system: NCI-H23 lung
HOP-62 NSCLC = test system: HOP-62 NSCLC
SK-MEL-2 melanoma = test system: SK-MEL-2 melanoma
HCC-2998 colon = test system: HCC-2998 colon
KM12 colon = test system: KM12 colon
786-0 renal = test system: 786-0 renal
T-47D breast = test system: T-47D breast
RXF 393 renal = test system: RXF 393 renal
RPMI-8226 leukemia = test system: RPMI-8226 leukemia
TK-10 renal = test system: TK-10 renal
OVCAR-3 ovarian = test system: OVCAR-3 ovarian
SK-OV-3 ovarian = test system: SK-OV-3 ovarian
OVCAR-8 ovarian = test system: OVCAR-8 ovarian
HCT-15 colon = test system: HCT-15 colon
ACHN renal = test system: ACHN renal
CAKI-1 renal = test system: CAKI-1 renal
SF-295 CNS = test system: SF-295 CNS
MDA-MB-435 = test system: MDA-MB-435
LOX IMVI melanoma = test system: LOX IMVI melanoma
OVCAR-5 ovarian = test system: OVCAR-5 ovarian
SK-MEL-5 melanoma = test system: SK-MEL-5 melanoma
HCT-116 colon = test system: HCT-116 colon
HOP-92 NSCLC = test system: HOP-92 NSCLC
HL-60(TB) leukemia = test system: HL-60(TB) leukemia
SNB-75 CNS = test system: SNB-75 CNS
NCI-H226 lung = test system: NCI-H226 lung

Work on Cc1ccc(S(=O)(=O)NCCN(CCNS(=O)(=O)c2ccc(C)cc2)S(=O)(=O)c2ccc(C)cc2)cc1 yielded a TGI (UACC-257 melanoma) greater than 100 µM, a TGI (OVCAR-4 ovarian) of 56 µM and a TGI (NCI-H522 lung) greater than 100 µM. For the same compound, the TGI (MDA-N) was greater than 100 µM, the TGI (U251 CNS) was greater than 100 µM and the TGI (M14 melanoma) was greater than 100 µM. It also gave a TGI (DU-145 prostate) greater than 100 µM, a TGI (SF-268 CNS) greater than 100 µM and a TGI (MCF7 breast) greater than 100 µM. The TGI (COLO 205 colon) was greater than 100 µM, the TGI (BT-549 breast) was greater than 100 µM and the TGI (EKVX NSCLC) was greater than 100 µM. The TGI (IGROV1 ovarian) was greater than 100 µM, the TGI (UACC-62 melanoma) was greater than 100 µM and the TGI (SNB-19 CNS) was greater than 100 µM. For the same compound, the TGI (MDA-MB-231 breast) was greater than 100 µM, the TGI (SW-620 colon) was greater than 100 µM and the TGI (SN12C renal) was greater than 100 µM. The TGI (K-562 leukemia) was greater than 100 µM, the TGI (CCRF-CEM leukemia) was greater than 100 µM and the TGI (MALME-3M melanoma) was 60 µM. The TGI (A549 NSCLC) was greater than 100 µM, the TGI (MOLT-4 leukemia) was greater than 100 µM and the TGI (UO-31 renal) was greater than 100 µM. It also gave a TGI (PC-3 prostate) greater than 100 µM, a TGI (A498 renal) greater than 100 µM and a TGI (NCI-H460 lung) greater than 100 µM. For the same compound, the TGI (NCI/ADR-RES ovarian) was greater than 100 µM, the TGI (SF-539 CNS) was greater than 100 µM and the TGI (SR leukemia) was greater than 100 µM. For the same compound, the TGI (HS 578T breast) was greater than 100 µM, the TGI (SK-MEL-28 melanoma) was greater than 100 µM and the TGI (HT29 colon) was greater than 100 µM. The TGI (NCI-H23 lung) was greater than 100 µM, the TGI (HOP-62 NSCLC) was greater than 100 µM and the TGI (SK-MEL-2 melanoma) was greater than 100 µM. It also gave a TGI (HCC-2998 colon) greater than 100 µM, a TGI (KM12 colon) greater than 100 µM and a TGI (786-0 renal) greater than 100 µM. For the same compound, the TGI (T-47D breast) was greater than 100 µM, the TGI (RXF 393 renal) was greater than 100 µM and the TGI (RPMI-8226 leukemia) was greater than 100 µM. It also gave a TGI (TK-10 renal) greater than 100 µM, a TGI (OVCAR-3 ovarian) greater than 100 µM and a TGI (SK-OV-3 ovarian) greater than 100 µM. For the same compound, the TGI (OVCAR-8 ovarian) was greater than 100 µM, the TGI (HCT-15 colon) was greater than 100 µM and the TGI (ACHN renal) was greater than 100 µM. It also gave a TGI (CAKI-1 renal) greater than 100 µM, a TGI (SF-295 CNS) greater than 100 µM and a TGI (MDA-MB-435) greater than 100 µM. The TGI (LOX IMVI melanoma) was greater than 100 µM, the TGI (OVCAR-5 ovarian) was greater than 100 µM and the TGI (SK-MEL-5 melanoma) was greater than 100 µM. It also gave a TGI (HCT-116 colon) greater than 100 µM.
CCOC(=O)/C=C(/OCC)[C@@H]1C(C(=O)c2ccc(Cl)cc2)[C@H]1/C(=C\C(=O)OCC)OCC (stereo partly drawn) was tested, and the TGI (HOP-92 NSCLC) was greater than 100 µM, the TGI (UACC-257 melanoma) was greater than 100 µM and the TGI (OVCAR-4 ovarian) was greater than 100 µM. It also gave a TGI (NCI-H522 lung) greater than 100 µM, a TGI (MDA-N) greater than 100 µM and a TGI (U251 CNS) greater than 100 µM. The TGI (M14 melanoma) was greater than 100 µM, the TGI (DU-145 prostate) was greater than 100 µM and the TGI (SF-268 CNS) was greater than 100 µM. For the same compound, the TGI (MCF7 breast) was greater than 100 µM, the TGI (COLO 205 colon) was greater than 100 µM and the TGI (BT-549 breast) was greater than 100 µM. The TGI (EKVX NSCLC) was greater than 100 µM, the TGI (IGROV1 ovarian) was greater than 100 µM and the TGI (UACC-62 melanoma) was greater than 100 µM. The TGI (SNB-19 CNS) was greater than 100 µM, the TGI (MDA-MB-231 breast) was greater than 100 µM and the TGI (SW-620 colon) was greater than 100 µM. It also gave a TGI (SN12C renal) greater than 100 µM, a TGI (K-562 leukemia) greater than 25.2 µM and a TGI (HL-60(TB) leukemia) greater than 100 µM. It also gave a TGI (CCRF-CEM leukemia) greater than 100 µM, a TGI (MALME-3M melanoma) greater than 100 µM and a TGI (A549 NSCLC) greater than 100 µM. It also gave a TGI (MOLT-4 leukemia) greater than 100 µM, a TGI (UO-31 renal) greater than 100 µM and a TGI (PC-3 prostate) greater than 100 µM. It also gave a TGI (A498 renal) greater than 100 µM, a TGI (NCI-H460 lung) greater than 100 µM and a TGI (NCI/ADR-RES ovarian) greater than 100 µM. The TGI (SF-539 CNS) was greater than 100 µM, the TGI (SR leukemia) was greater than 23.6 µM and the TGI (SNB-75 CNS) was greater than 100 µM. It also gave a TGI (HS 578T breast) greater than 100 µM, a TGI (SK-MEL-28 melanoma) greater than 100 µM and a TGI (HT29 colon) greater than 100 µM. It also gave a TGI (NCI-H23 lung) greater than 100 µM, a TGI (HOP-62 NSCLC) greater than 100 µM and a TGI (SK-MEL-2 melanoma) greater than 100 µM. The TGI (KM12 colon) was greater than 100 µM, the TGI (786-0 renal) was greater than 100 µM and the TGI (T-47D breast) was greater than 100 µM. For the same compound, the TGI (RXF 393 renal) was greater than 100 µM, the TGI (RPMI-8226 leukemia) was greater than 28.8 µM and the TGI (TK-10 renal) was greater than 100 µM. For the same compound, the TGI (OVCAR-3 ovarian) was greater than 100 µM, the TGI (SK-OV-3 ovarian) was greater than 100 µM and the TGI (NCI-H226 lung) was greater than 100 µM. It also gave a TGI (OVCAR-8 ovarian) greater than 100 µM, a TGI (HCT-15 colon) greater than 100 µM and a TGI (ACHN renal) greater than 100 µM. It also gave a TGI (CAKI-1 renal) greater than 100 µM, a TGI (SF-295 CNS) greater than 100 µM and a TGI (MDA-MB-435) greater than 100 µM. It also gave a TGI (LOX IMVI melanoma) greater than 100 µM, a TGI (OVCAR-5 ovarian) greater than 100 µM and a TGI (SK-MEL-5 melanoma) greater than 100 µM. It also gave a TGI (HCT-116 colon) greater than 100 µM.
